# Experimental data published in patent US20260042731A1, “(2,4-DICHLOROPHENOXY)ACETIC ACID ANALOGS” (CORTEVA AGRISCIENCE LLC, priority 2022, published 2026).
# Like-named read-outs stand apart in the source and are kept apart here.
# Tests used:
# [1] = Volatility of compounds measured by thermogravimetric analysis (TGA); type: physicochemical
# [2] = system: weeds ABUTH, AMATA, AMBEL, CHEAL, ERICA; assay: Postemergence herbicide evaluation, overall average % weed control (ABUTH, AMATA, AMBEL, CHEAL, ERICA); type: in vivo; details: for pest or weed control at 280 g/ha / pest or weed control at 560 g/ha: post-emergence, read-out: Overall Ave % Weed Control
# [3] = system: Abutilon theophrasti (ABUTH), velvetleaf; assay: Postemergence herbicide evaluation, growth of Abutilon theophrasti (ABUTH); type: in vivo; details: for pest or weed control at 280 g/ha / pest or weed control at 560 g/ha: Abutilon theophrasti, post-emergence, read-out: AVE. ABUTH, percent reduction in plant size relative to the untreated control
# [4] = system: Ambrosia artemisiifolia (AMBEL), common ragweed; assay: Postemergence herbicide evaluation, growth of Ambrosia artemisiifolia (AMBEL); type: in vivo; details: for pest or weed control at 280 g/ha / pest or weed control at 560 g/ha: Ambrosia artemisiifolia, post-emergence, read-out: AVE. AMBEL, percent reduction in plant size relative to the untreated control
# [5] = system: Chenopodium album (CHEAL), common lambsquarters; assay: Postemergence herbicide evaluation, growth of Chenopodium album (CHEAL); type: in vivo; details: for pest or weed control at 280 g/ha / pest or weed control at 560 g/ha: Chenopodium album, post-emergence, read-out: Ave. CHEAL, percent reduction in plant size relative to the untreated control
# [6] = system: glyphosate resistant Conyza canadensis (L.) (ERICA), horseweed; assay: Postemergence herbicide evaluation, growth of Conyza canadensis (ERICA); type: in vivo; details: for pest or weed control at 280 g/ha / pest or weed control at 560 g/ha: Erigeron canadensis, post-emergence, read-out: Ave. ERICA, percent reduction in plant size relative to the untreated control
# [7] = system: Amaranthus rudis (AMATA), tall water hemp; assay: Postemergence herbicide evaluation, growth of Amaranthus rudis (AMATA); type: in vivo; details: for pest or weed control at 280 g/ha / pest or weed control at 560 g/ha: Amaranthus tuberculatus, post-emergence, read-out: Ave. AMATA, percent reduction in plant size relative to the untreated control
smiles,measurement,setting,value
"O=C(COc1ccc(Cl)cc1Cl)n1ncc2ccccc21 [Compound D3, 2-(2,4-Dichlorophenoxy)-1-(1H-indazol-1-yl)ethanone]","TGA Data (rate of weight loss, volatility)",[1],0.03 µg/min
same,pest or weed control at 280 g/ha,[2]; 168 h,59%
same,pest or weed control at 560 g/ha,[2]; 168 h,65%
same,pest or weed control at 280 g/ha,[2]; 336 h,64%
same,pest or weed control at 560 g/ha,[2]; 336 h,74%
same,pest or weed control at 280 g/ha,[2]; 504 h,63%
same,pest or weed control at 560 g/ha,[2]; 504 h,73%
same,pest or weed control at 280 g/ha,[3]; 168 h,30%
same,pest or weed control at 560 g/ha,[3]; 168 h,48%
same,pest or weed control at 280 g/ha,[3]; 336 h,25%
same,pest or weed control at 560 g/ha,[3]; 336 h,43%
same,pest or weed control at 280 g/ha,[3]; 504 h,23%
same,pest or weed control at 560 g/ha,[3]; 504 h,35%
same,pest or weed control at 280 g/ha,[4]; 168 h,63%
same,pest or weed control at 560 g/ha,[4]; 168 h,68%
same,pest or weed control at 280 g/ha,[4]; 336 h,75%
same,pest or weed control at 560 g/ha,[4]; 336 h,90%
same,pest or weed control at 280 g/ha,[4]; 504 h,73%
same,pest or weed control at 560 g/ha,[4]; 504 h,95%
same,pest or weed control at 280 g/ha,[5]; 168 h,68%
same,pest or weed control at 560 g/ha,[5]; 168 h,68%
same,pest or weed control at 280 g/ha,[5]; 336 h,63%
same,pest or weed control at 560 g/ha,[5]; 336 h,70%
same,pest or weed control at 280 g/ha,[5]; 504 h,63%
same,pest or weed control at 560 g/ha,[5]; 504 h,70%
same,pest or weed control at 280 g/ha,[6]; 168 h,63%
same,pest or weed control at 560 g/ha,[6]; 168 h,68%
same,pest or weed control at 280 g/ha,[6]; 336 h,83%
same,pest or weed control at 560 g/ha,[6]; 336 h,85%
same,pest or weed control at 280 g/ha,[6]; 504 h,84%
same,pest or weed control at 560 g/ha,[6]; 504 h,88%
same,pest or weed control at 280 g/ha,[7]; 168 h,70%
same,pest or weed control at 560 g/ha,[7]; 168 h,73%
same,pest or weed control at 280 g/ha,[7]; 336 h,73%
same,pest or weed control at 560 g/ha,[7]; 336 h,80%
same,pest or weed control at 280 g/ha,[7]; 504 h,75%
same,pest or weed control at 560 g/ha,[7]; 504 h,78%
O=C(COc1ccc(Cl)cc1Cl)Oc1cncnc1 [Compound E1],"TGA Data (rate of weight loss, volatility)",[1],0.8 µg/min
same,Overall Ave % Weed Control,"[2]; 280 g ae/ha, 7 DAA",75%
same,Overall Ave % Weed Control,"[2]; 280 g ae/ha, 14 DAA",85%
same,Overall Ave % Weed Control,"[2]; 280 g ae/ha, 21 DAA",88%
same,Overall Ave % Weed Control,"[2]; 560 g ae/ha, 7 DAA",76%
same,Overall Ave % Weed Control,"[2]; 560 g ae/ha, 14 DAA",89%
same,Overall Ave % Weed Control,"[2]; 560 g ae/ha, 21 DAA",93%
same,"AVE. ABUTH, percent reduction in plant size relative to the untreated control","[3]; 280 g ae/ha, 7 DAA",93%
same,"AVE. ABUTH, percent reduction in plant size relative to the untreated control","[3]; 280 g ae/ha, 14 DAA",96%
same,"AVE. ABUTH, percent reduction in plant size relative to the untreated control","[3]; 280 g ae/ha, 21 DAA",100%
same,"AVE. ABUTH, percent reduction in plant size relative to the untreated control","[3]; 560 g ae/ha, 7 DAA",85%
same,"AVE. ABUTH, percent reduction in plant size relative to the untreated control","[3]; 560 g ae/ha, 14 DAA",97%
same,"AVE. ABUTH, percent reduction in plant size relative to the untreated control","[3]; 560 g ae/ha, 21 DAA",100%
same,"AVE. AMBEL, percent reduction in plant size relative to the untreated control","[4]; 280 g ae/ha, 7 DAA",65%
same,"AVE. AMBEL, percent reduction in plant size relative to the untreated control","[4]; 280 g ae/ha, 14 DAA",96%
same,"AVE. AMBEL, percent reduction in plant size relative to the untreated control","[4]; 280 g ae/ha, 21 DAA",99%
same,"AVE. AMBEL, percent reduction in plant size relative to the untreated control","[4]; 560 g ae/ha, 7 DAA",73%
same,"AVE. AMBEL, percent reduction in plant size relative to the untreated control","[4]; 560 g ae/ha, 14 DAA",90%
same,"AVE. AMBEL, percent reduction in plant size relative to the untreated control","[4]; 560 g ae/ha, 21 DAA",97%
same,"Ave. CHEAL, percent reduction in plant size relative to the untreated control","[5]; 280 g ae/ha, 7 DAA",70%
same,"Ave. CHEAL, percent reduction in plant size relative to the untreated control","[5]; 280 g ae/ha, 14 DAA",73%
same,"Ave. CHEAL, percent reduction in plant size relative to the untreated control","[5]; 280 g ae/ha, 21 DAA",78%
same,"Ave. CHEAL, percent reduction in plant size relative to the untreated control","[5]; 560 g ae/ha, 7 DAA",75%
same,"Ave. CHEAL, percent reduction in plant size relative to the untreated control","[5]; 560 g ae/ha, 14 DAA",90%
same,"Ave. CHEAL, percent reduction in plant size relative to the untreated control","[5]; 560 g ae/ha, 21 DAA",87%
same,"Ave. ERICA, percent reduction in plant size relative to the untreated control","[6]; 280 g ae/ha, 7 DAA",68%
same,"Ave. ERICA, percent reduction in plant size relative to the untreated control","[6]; 280 g ae/ha, 14 DAA",85%
same,"Ave. ERICA, percent reduction in plant size relative to the untreated control","[6]; 280 g ae/ha, 21 DAA",95%
same,"Ave. ERICA, percent reduction in plant size relative to the untreated control","[6]; 560 g ae/ha, 7 DAA",75%
same,"Ave. ERICA, percent reduction in plant size relative to the untreated control","[6]; 560 g ae/ha, 14 DAA",85%
same,"Ave. ERICA, percent reduction in plant size relative to the untreated control","[6]; 560 g ae/ha, 21 DAA",98%
same,"Ave. AMATA, percent reduction in plant size relative to the untreated control","[7]; 280 g ae/ha, 7 DAA",78%
same,"Ave. AMATA, percent reduction in plant size relative to the untreated control","[7]; 280 g ae/ha, 14 DAA",75%
same,"Ave. AMATA, percent reduction in plant size relative to the untreated control","[7]; 280 g ae/ha, 21 DAA",70%
same,"Ave. AMATA, percent reduction in plant size relative to the untreated control","[7]; 560 g ae/ha, 7 DAA",73%
same,"Ave. AMATA, percent reduction in plant size relative to the untreated control","[7]; 560 g ae/ha, 14 DAA",85%
same,"Ave. AMATA, percent reduction in plant size relative to the untreated control","[7]; 560 g ae/ha, 21 DAA",85%
